According to patent publication US7674827B2, “Indanyl- and tetrahydronaphtyl-amino-thiourea compounds for combating animal pests” (BASF SE, priority 2005, dated 2010):

Assays:
Type in all cases: in vivo
Myzus persicae = experiment: Green peach aphid (Myzus persicae) mortality test on dipped pepper plants; conditions: 120 h, pepper plant leaves dipped, aphid mortality determined after 5 days, read-out: mortality in comparison with untreated controls
Description: (§1) The active compounds were formulated • a. for testing the activity against Aphis gossypii, Myzus persicae, and Aphis fabae, as 50:50 acetone:water solutions amended with 100 ppm Kinetic® (surfactant), • b. for testing the activity against Spodoptera eridania as a 10.000 ppm solution in a mixture of 35% acetone and water, which was diluted with water, if needed.
(§2) After the experiments were completed, in each case the lowest concentration was determined at which the compound still caused an 75 to 100% inhibition or mortality in comparison with untreated controls (limit or minimal concentration).
B.2 Green Peach Aphid (Myzus persicae)
Pepper plants in the 2nd leaf-pair stage (variety ‘California Wonder’) are infested with approximately 40 laboratory-reared aphids by placing infested leaf sections on top of the test plants. The leaf sections are removed after 24 hr. The leaves of the intact plants are dipped into gradient solutions of the test compound. Aphid mortality on the treated plants, relative to mortality on check plants, is determined after 5 days.

Aphis fabae = experiment: Bean aphid (Aphis fabae) mortality test on dipped nasturtium plants; conditions: foliar, 72 h, nasturtium foliage and stem dipped, aphid mortality determined after 3 days, read-out: mortality in comparison with untreated controls
Description: as §1, §2
B.3 Bean Aphid (Aphis fabae)
Nasturtium plants in the 1st leaf-pair stage (variety ‘Mixed Jewel’) are infested with approximately 25 laboratory-reared aphids by placing infested cut plants on top of the test plants. The cut plants are removed after 24 hr. The foliage and stem of the test plants are dipped into gradient solutions of the test compound. Aphid mortality is determined after 3 days.

Aphis gossypii = experiment: Cotton aphid (Aphis gossypii) mortality test on dipped cotton plants; conditions: 120 h, cotton cotyledons dipped, aphid mortality determined after 5 days, read-out: mortality in comparison with untreated controls
Description: as §1, §2
B.1 Cotton Aphid (Aphis gossypii)
Cotton plants in the cotyledon stage (variety ‘Delta Pine’) are infested with approximately 100 laboratory-reared aphids by placing infested leaf sections on top of the test plants. The leaf sections are removed after 24 hr. The cotyledons of the intact plants are dipped into gradient solutions of the test compound. Aphid mortality on the treated plants, relative to mortality on check plants, is determined after 5 days.

Measured: mortality at 300 ppm

O=C(OCCNC(=S)NC1CCc2ccccc21)c1ccncc1 (racemic) [Example 13, Isonicotinic acid 2-(3-indan-1-yl-thioureido)-ethyl ester]
> 80%: all assays above

COCC(=O)OCCNC(=S)NC1CCc2ccccc21 (racemic) [Example 14, Methoxy-acetic acid 2-(3-indan-1-yl-thioureido)-ethyl ester]
> 80%: all assays above
